Values of other authors as cited in patent US20250275556A1, “N[…] METHOD FOR PRODUCING THE SAME” (Kalium Agri, Inc., priority 2024, published 2025).

Details: magnesium supplement in cattle, in optimal situations

Q: Which digestible does the source give for `[O]=[Mg]` [magnesium oxide] here?
A: 19%
